# According to patent publication US20090170847A1, “Imidazopyridine Derivatives Inhibiting Protein Kinase Activity, Method for the Preparation Thereof and Pharmaceutical Composition Containing Same” (priority 2006, published 2009):
# Experiments:
# Type in all cases: biochemical
# [1] = target: T1, JNK-1 (Homo sapiens, UniProt P45983); test: JNK-1 enzyme inhibition (GST-ATF2, 32P-ATP)
# T1 construct: purchased Upstate
# [2] = target: human GSK-3β (Homo sapiens, UniProt P49841); test: GSK-3β enzyme inhibition (32P-ATP, phospho-CREB peptide, filter paper); conditions: 100 μM ATP, 30° C., 1 hour
# Sequence of human GSK-3β (P49841 whole entry): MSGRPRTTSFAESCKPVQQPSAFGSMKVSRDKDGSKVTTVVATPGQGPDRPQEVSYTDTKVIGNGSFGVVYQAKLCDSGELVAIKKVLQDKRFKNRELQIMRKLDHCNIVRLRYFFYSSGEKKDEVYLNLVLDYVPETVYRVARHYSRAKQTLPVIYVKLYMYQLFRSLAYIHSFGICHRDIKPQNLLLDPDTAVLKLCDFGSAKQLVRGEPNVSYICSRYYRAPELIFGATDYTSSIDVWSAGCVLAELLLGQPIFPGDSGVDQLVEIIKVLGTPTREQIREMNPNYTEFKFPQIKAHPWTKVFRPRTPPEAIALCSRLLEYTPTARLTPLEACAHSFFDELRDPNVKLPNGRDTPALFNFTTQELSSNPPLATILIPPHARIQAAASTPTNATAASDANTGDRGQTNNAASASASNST
# Experimental: GSK-3β was prepared by a gene recombination method.
# First, primers corresponding to 5′-end and 3′-end of polynucleotide encoding human GSK-3β were designed and synthesized from nucleotide sequence of human GSK-3β (GenBank Reg. No. L33801). Then, the primers were amplified by PCR (polymerase chain reaction) in which a human DNA sequence was employed as a template and treated with restriction enzyme BamH1/XhoI. The resulting gene fragments were inserted into the corresponding identical restriction sites of pGex vector (GE Healthcare Life Science) to prepare an expression vector for transformation of E. coli BL21 (DE3) strain (Invitrogen). The transformed E. coli strain was inoculated to LB medium (1% Bacto tryptone, 0.5% yeast extract, 1% sodium chloride) and cultured until the optical density of the bacterial cells was about 0.5 at 600 nm and 37° C. Then, IPTG (isopropyl-β-D-thiogalactoside) was added thereto to a final concentration to 0.5 mM at 18° C. 16 hours after IPTG addition, the cells were subjected to centrifugation at 10,000×g for 10 mins and cell precipitates were collected. The cell precipitates were suspended in a buffer solution (30 mM tris-HCl (pH 7.5), 100 mM NaCl, 5% glycerol, 2 mM DTT) and the cells were smashed in an ice bath using a Sonic Dismembrator (Fisher, USA). The resulting solution was centrifuged at 16,000 rpm for 30 mins.
# The supernatant obtained above was introduced to a pre-equilibrated GST column (Pharmacia, USA) and eluted by 5 mM glutachione. The effuent was subjected to SDS-PAGE and GSK-3β protein was collected. GST protein was cutt using thrombin. The GSK-3β protein thus obtained was diluted with a buffer solution (20 mM HEPES (pH 7.5), 5% glycerol, 2 mM DTT) until the concentration of NaCl reached 50 mM. The diluted solution was introduced to Mono S column (Pharmacia, USA) equilibrated with the above buffer solution and eluted with a aqueous NaCl while changing the concentration from 0 to 1 M NaCl, and GSK-3β protein was collected by a electrophoresis. The purified protein was used in the analysis for the activity for enzyme activity.
# The enzyme reaction was conducted in a buffer solution (50 mM of tris-HCl (pH 7.5), 10 mM of MgCl2, 1 mM of EGTA, 1 mM of EDTA and 1 mM of DTT). 100 μM of phosho-CREB peptide (NEB, USA), 100 μM of ATP and 1 μCi of ^32P-ATP were added to the buffer solution as substrates. And then 100 nM of recombinant GSK-3β was added thereto and the mixture was reacted at 30° C. for 1 hour. The reaction was terminated by the addition of 5 μl of 5% phosphoric acid solution to 25 μl of the reaction mixture. The resulting solution was subjected to centrifugation at 15,000 for 10 mins and 20 μl of the supernatant thus obtained was dropped on whatman p81 filter paper. The filter paper was washed in 0.5% phosphoric acid solution for 10 mins. After repeating the washing 3 times, the filter paper was dried and its cpm (counter per mins) was assessed.
# The test solution prepared above by dissolving a test compound in DMSO was added to the reaction solution in an amount of less than 5% based on the total reaction solution to analyze the capacity for enzyme inhibitory activity.
# [3] = target: T2, ERK-1 (Homo sapiens, UniProt P27361); test: ERK-1 enzyme inhibition (MBP, 32P-ATP); conditions: ERK-1, 100 μM ATP
# T2 construct: purchased Upstate
# T2 sequence (P27361 whole entry, species assumed): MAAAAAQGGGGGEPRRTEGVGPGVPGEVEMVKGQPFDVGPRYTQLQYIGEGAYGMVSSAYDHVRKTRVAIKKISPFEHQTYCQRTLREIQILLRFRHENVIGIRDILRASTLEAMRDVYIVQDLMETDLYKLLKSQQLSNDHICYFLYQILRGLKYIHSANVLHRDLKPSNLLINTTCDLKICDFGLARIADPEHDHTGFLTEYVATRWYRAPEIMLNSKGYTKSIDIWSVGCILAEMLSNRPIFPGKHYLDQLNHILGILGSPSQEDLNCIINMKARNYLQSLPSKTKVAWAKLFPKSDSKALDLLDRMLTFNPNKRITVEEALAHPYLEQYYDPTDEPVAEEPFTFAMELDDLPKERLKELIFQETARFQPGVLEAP
# Experimental: (§1) The test solution prepared above by dissolving a test compound in DMSO was added to the reaction solution in an amount of less than 5% based on the total reaction solution to analyze the capacity for enzyme inhibitory activity. The cpm value obtained when the test compounds was present relative to the cpm value in the absence of the test compound was represented by percentage, and IC50 (μM) was determined as the concentration of the test compound required to inhibit the enzyme activity by 50% relatively to the control solution.
# (§2) The compounds prepared in the Examples were dissolved in dimethylsulfoxide (DMSO) at a concentration of 12.5 mM to prepare test compounds and enzyme reaction was conducted in a buffer solution containing 50 mM of tris-HCl (pH 7.5), 10 mM of MgCl2, 1 mM of EGTA, 1 mM of EDTA and 1 mM of DTT. 0.33 mg/ml of MBP (Upstate), 100 μM of ATP and 0.25 μCi of ^32P-ATP were added to the buffer solution as substrates. 5 nM of recombinant Erk-1 (Upstate) was added the resulting mixture, and the mixture was reacted at 30° C. for 1 hour. The reaction was terminated by adding 5 μl of 5% phosphoric acid solution to 25 μl of the reaction mixture. 15 μl of the resulting solution was dropped on whatman p81 filter paper, which was then washed in 0.5% phosphoric acid solution for 10 mins. After repeating the washing 3 times, the filter paper was dried and cpm thereof was measured by a liquid scintillation counter (Packard, USA). Inhibitory capacities of the test compounds for the enzyme activity were assessed according to the same method as in GSK-3β analysis, and IC50 value was calculated.
# [4] = target: T3, KDR (Homo sapiens, UniProt P35968); test: KDR enzyme inhibition (Biotin-polyE4Y, alphascreen); conditions: 0.1 μM ATP
# T3 construct: purchased Upstate
# T3 sequence (P35968 20-1356, species assumed): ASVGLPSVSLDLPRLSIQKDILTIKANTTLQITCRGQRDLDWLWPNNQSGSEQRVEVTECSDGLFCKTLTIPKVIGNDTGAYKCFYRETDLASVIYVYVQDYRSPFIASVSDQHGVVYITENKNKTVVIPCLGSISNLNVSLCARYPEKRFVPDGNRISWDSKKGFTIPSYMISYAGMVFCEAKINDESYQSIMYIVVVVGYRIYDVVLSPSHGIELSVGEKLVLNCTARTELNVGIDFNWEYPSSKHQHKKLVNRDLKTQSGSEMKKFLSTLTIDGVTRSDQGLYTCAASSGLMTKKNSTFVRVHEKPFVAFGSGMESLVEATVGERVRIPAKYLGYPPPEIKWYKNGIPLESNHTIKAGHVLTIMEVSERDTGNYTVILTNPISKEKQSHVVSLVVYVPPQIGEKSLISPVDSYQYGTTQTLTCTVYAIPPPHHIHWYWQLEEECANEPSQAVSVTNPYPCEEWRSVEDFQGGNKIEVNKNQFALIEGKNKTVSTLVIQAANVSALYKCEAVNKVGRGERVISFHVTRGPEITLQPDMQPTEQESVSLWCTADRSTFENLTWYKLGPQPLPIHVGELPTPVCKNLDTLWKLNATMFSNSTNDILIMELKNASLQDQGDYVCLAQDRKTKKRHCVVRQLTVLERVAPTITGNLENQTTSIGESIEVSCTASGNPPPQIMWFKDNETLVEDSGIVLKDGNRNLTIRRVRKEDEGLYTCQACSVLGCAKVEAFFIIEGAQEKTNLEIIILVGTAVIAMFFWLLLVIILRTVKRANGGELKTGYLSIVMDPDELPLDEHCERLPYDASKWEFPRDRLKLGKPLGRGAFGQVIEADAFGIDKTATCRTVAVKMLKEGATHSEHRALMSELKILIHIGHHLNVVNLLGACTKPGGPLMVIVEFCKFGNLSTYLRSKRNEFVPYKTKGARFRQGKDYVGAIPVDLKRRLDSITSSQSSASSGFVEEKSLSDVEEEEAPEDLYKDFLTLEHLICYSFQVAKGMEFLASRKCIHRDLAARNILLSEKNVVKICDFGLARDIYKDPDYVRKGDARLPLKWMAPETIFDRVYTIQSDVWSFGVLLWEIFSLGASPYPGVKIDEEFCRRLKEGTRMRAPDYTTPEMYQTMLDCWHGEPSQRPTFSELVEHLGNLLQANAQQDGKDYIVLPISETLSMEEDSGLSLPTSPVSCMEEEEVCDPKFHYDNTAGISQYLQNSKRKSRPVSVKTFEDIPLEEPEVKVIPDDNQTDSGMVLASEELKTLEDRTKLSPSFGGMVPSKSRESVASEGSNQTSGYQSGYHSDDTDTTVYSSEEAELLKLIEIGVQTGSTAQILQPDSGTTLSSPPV
# Experimental: as §1
# The compounds prepared in the Examples were dissolved in dimethylsulfoxide (DMSO) at a concentration of 12.5 mM to prepare test solution, and enzyme reaction was conducted in a buffer solution containing 50 mM tris-HCl (pH 7.5), 5 mM MgCl2, 1 mM MnCl2, 0.01% tween-20 and 2 mM of DTT. 1 nM of Biotin-polyE4Y (Packard) and 0.1 μM of ATP were added to the buffer solution as substrates. 2 nM of recombinant KDR (Upstate) was added the resulting mixture and reaction was carried out at 30° C. for 1 hour. 10 μl of a diluted solution prepared by diluting alphascreen phosphotyrosine (T-Tyr-100, Packard) beads with a solution containing 6.25 mM of HEPES (pH 7.4), 250 mM of NaCl, 100 Mm EDTA, and 0.25% BSA was added to 15 μl of the KDR reaction solution. After a reaction at a room temperature for 1 hour, alphascreen signal was measured by a fusion a-FP (Packard). Inhibitory capacities of the test compounds for the enzyme activity were assessed according to the same method as in GSK-3β analysis, and IC50 value was calculated.
# [5] = target: T4, CDK-2/cycline A (Homo sapiens, UniProt P24941); test: CDK-2 enzyme inhibition (histone H1, 32P-ATP)
# T4 construct: purchased Upstate
# Experimental: as §2, with “0.33” for “The compounds prepared in the Examples were dissolved in dimethylsulfoxide (DMSO) at a concentration of 12.5 mM to prepare test compounds and enzyme reaction was conducted in a buffer solution containing 50 mM of tris-HCl (pH 7.5), 10 mM of MgCl2, 1 mM of EGTA, 1 mM of EDTA and 1 mM of DTT. 0.33”
# The procedure of ERK-1 analysis was repeated to assess inhibitory capacities of the test compounds for the enzyme activity, except for using 2.5 μg of histone H1 (Upstate) and 100 nM of recombinant CDK-2/cycline A (Upstate).
# [6] = target: T5, p38 Mitogen-activated protein kinase (MAPK) (Homo sapiens, UniProt Q16539); test: p38 MAPK enzyme inhibition (histone H1, 32P-ATP); conditions: p38 MAPK (recombinant p38a)
# T5 construct: purchased Upstate
# T5 sequence (Q16539 whole entry): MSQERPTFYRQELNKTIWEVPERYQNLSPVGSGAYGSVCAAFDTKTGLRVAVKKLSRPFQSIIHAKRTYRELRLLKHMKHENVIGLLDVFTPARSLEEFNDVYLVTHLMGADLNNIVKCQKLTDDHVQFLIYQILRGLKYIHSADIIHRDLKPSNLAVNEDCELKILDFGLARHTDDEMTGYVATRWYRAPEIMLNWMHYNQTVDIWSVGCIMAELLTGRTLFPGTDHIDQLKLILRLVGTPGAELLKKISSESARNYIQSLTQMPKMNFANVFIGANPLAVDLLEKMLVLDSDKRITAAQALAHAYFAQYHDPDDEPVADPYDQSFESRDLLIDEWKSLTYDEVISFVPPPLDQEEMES
# Experimental: The procedure of ERK-1 analysis was repeated to assess inhibitory capacities of the test compounds for the enzyme activity, except for using 2.5 μg of histone H1 (Upstate) and 5 nM of recombinant p38a (Upstate).
# T1 sequence (P45983 whole entry, species assumed): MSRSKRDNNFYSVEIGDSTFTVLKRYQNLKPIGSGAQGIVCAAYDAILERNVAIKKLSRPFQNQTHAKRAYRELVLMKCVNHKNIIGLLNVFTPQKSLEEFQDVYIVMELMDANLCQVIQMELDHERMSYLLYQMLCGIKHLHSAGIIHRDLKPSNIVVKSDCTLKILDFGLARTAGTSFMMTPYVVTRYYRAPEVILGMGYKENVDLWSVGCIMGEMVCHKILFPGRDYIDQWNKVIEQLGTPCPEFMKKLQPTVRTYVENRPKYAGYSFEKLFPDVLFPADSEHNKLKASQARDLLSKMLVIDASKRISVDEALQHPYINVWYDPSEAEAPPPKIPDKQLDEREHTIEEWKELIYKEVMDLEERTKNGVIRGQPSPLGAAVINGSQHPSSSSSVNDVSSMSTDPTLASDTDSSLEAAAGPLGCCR
smiles,measurement,setting,value
"CCSc1ccncc1NC(=O)c1ccnc2[nH]c(-c3ccc(F)cc3)nc12 [Example 320, 2-(4-fluoro-phenyl)-3H-imidazo[4,5-b]pyridine-7-carboxylic acid(4-ethylsulfanyl-pyridin-3-yl)-amide]",IC50,[1],14.5 µM
same,IC50,[2],0.005 µM
same,IC50,[3],25.5 µM
same,IC50,[4],0.29 µM
same,IC50,[5],0.17 µM
same,IC50,[6],50 µM
